Reference: patent US10138242B2, “Pyrazolopyridine derivatives and their use in therapy” (HELMHOLTZ ZENTRUM MUENCHEN—DEUTSCHES FORSCHUNGSZENTRUM FUER …, priority 2015, dated 2018)
Read-outs that look alike come from different tables or passages of the source. Blank lines part the entries; values can stand above or below the compound they belong to.

Assays:
[1] = system: T. brucei brucei bloodstream form parasites (strain Lister 427); test: Antitrypanosomal activity assay (resazurin; FIG. 2); assay type: cell-based; settings: Trypanosoma brucei; 66 h + 6 h resazurin
Protocol: (A) The trypanosoma cell count and growth were evaluated at different doses of compounds of the invention.
Antitrypanosomal activity was tested on T. brucei brucei bloodstream from parasites (strain—Lister 427, VATMITat 1.2). Stock solutions of compounds (50 mM) were prepared in DMSO. Two fold serial dilutions of each compound (10 wells in each row) were prepared in 96 well plates in HMI111 medium (100 μl/well; quadruplicates; cf. also Hirumi et al., J. Parasitol. 75 (1989), 985-989). One well without compound, and one well with media alone were included in each row. […] The plates were incubated for 66 hours at 37° C. in the incubator with 5% CO2. 20 μl resazurin (Sigma, 0.125 mg/ml in Hanks Balanced Salt Solution) was added to all wells and the plate was further incubated for 6 hours. Change in color of resazurin (blue to pink) by living cells was measured with a 96 well plate reader (excitation at 530 nm, emission at 585 nm, filter cut-off: 570 nm). Percent inhibition values were calculated by setting the well without compound to “0% inhibition”.

[2] = target: PEX5-PEX14 complex (biotin-coupled PEX5 peptide, His-tagged T. brucei PEX14) (Trypanosoma brucei brucei, UniProt Q38CL4); test: biochemical; assay type: binding; settings: 30 nM PEX5, 30 nM PEX14, quadruplicate
Source text: (§1) The assay uses two types of beads: donor beads are coupled with streptavidin, and acceptor beads are coupled with an anti His-tag antibody. Upon excitation with light of a wavelength of 680 nm the donor beads produce reactive oxygen species that travel in solution only for a limited distance. If the acceptor beads are within that travel distance, it will absorb the reactive oxygen and emit light in the range of 520-620 nm. […] Thus, PEX5-PEX14 complex dissociation by a ligand caused decrease in light emission as the donor and acceptor beads were separated. Typically, we used 30 nM PEX5, 30 nM PEX14 and bead concentrations of 5 μg/mL. The PEX5-PEX14 complex was incubated with varying concentrations of inhibitor for 1 hour. Next, the beads were added and the system allowed to equilibrate for another hour. The raw data were fitted to four parameter sigmoidal curves by Origin software and EC50 values calculated. Each measurement was performed in quadruplicate and every experiment was accompanied with blank and reference samples (using non-biotynylated PEX5 peptide as a binding competitor).

[3] = system: PEX5-PEX14 complex (biotin-coupled PEX5 peptide, His-tagged T. brucei PEX14); test: biochemical; assay type: binding; settings: 30 nM PEX5, 30 nM PEX14; quadruplicate; read-out: AlphaScreen EC50 [μM] (±SD)
Source text: as §1

[4] = read-out: AlphaScreen EC50 [μM] (±SD)

PEX5-PEX14 complex (biotin-coupled PEX5 peptide, His-tagged T. brucei PEX14) (Trypanosoma brucei brucei, UniProt Q38CL4), sequence (Q38CL4 1-366, one chain of several): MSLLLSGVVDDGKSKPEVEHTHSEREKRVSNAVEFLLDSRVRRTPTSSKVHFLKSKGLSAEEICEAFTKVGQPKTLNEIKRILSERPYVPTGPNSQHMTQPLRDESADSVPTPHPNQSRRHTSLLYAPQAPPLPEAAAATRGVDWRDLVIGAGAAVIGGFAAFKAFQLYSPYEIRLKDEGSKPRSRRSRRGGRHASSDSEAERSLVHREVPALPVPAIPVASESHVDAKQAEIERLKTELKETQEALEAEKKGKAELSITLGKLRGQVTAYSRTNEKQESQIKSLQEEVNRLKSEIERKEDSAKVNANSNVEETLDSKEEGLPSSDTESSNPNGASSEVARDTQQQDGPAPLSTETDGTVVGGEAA

Compound: COc1ccc2c(CN3CCc4c(c(C(=O)NCc5cccc6ccccc56)nn4CCO)C3)c[nH]c2c1 [Compound 106]
IC50 [1]: 4.6 µM
EC50 [2, 4]: 25 µM

Compound: Cn1nc(C(=O)NCc2ccccc2)c2c1CCN(Cc1ccc(-c3ccccc3)cc1)C2 [Compound 9]
IC50 [1]: 6.8 µM
EC50 [2, 4]: 27.8 µM

Compound: COc1ccc(CN2CCc3nn4c(c3C2)C(=O)N(Cc2cccc3ccccc23)CC4)c2ccccc12 [Compound 91]
IC50 [1]: 6.4 µM
EC50 [2, 4]: 19.2 µM

Compound: NC(=O)Cn1nc(C(=O)NCc2ccccc2)c2c1CCN(Cc1c[nH]c3ccccc13)C2 [Compound 4]
IC50 [1]: 51 µM
EC50 [2, 4]: 1380 µM

Compound: COc1ccc(CN2CCc3c(c(C(=O)NCc4cccc5ccccc45)nn3-c3ccccc3)C2)c2ccccc12 [Compound 37]
IC50 [1]: 3.5 µM
EC50 [2, 4]: 7.61 µM

Compound: COc1ccc(CN2CCc3c(c(C(=O)NCc4cccc5ccccc45)nn3Cc3ccccc3)C2)c2ccccc12 [Compound 17]
IC50 [1]: 2.56 µM
EC50 [2, 4]: 10.5 µM

Compound: O=C(NCc1cccc2ccccc12)c1nn(CCO)c2c1CN(Cc1cccc3cccnc13)CC2 [Compound 45]
IC50 [1]: 10.7 µM
EC50 [2, 4]: 53.8 µM

Compound: O=C(NCc1cccc2ccccc12)c1nn(CCO)c2c1CN(Cc1cccc3cc[nH]c13)CC2 [Compound 53]
IC50 [1]: 6.8 µM
EC50 [2, 4]: 39.8 µM

Compound: COc1ccc(CN2CCc3c(c(C(=O)NCc4cccc(C)c4)nn3CCO)C2)c2ccccc12 [Compound 62]
IC50 [1]: 4.5 µM
EC50 [2, 4]: 38.1 µM

Compound: COc1ccc(CN2CCc3nn(CCO)c(C(=O)NCc4cccc5ccccc45)c3C2)c2ccccc12 [Compound 90]
IC50 [1]: 3.3 µM
EC50 [2, 4]: 66.1 µM

Compound: COc1ccc(CN2CCc3c(c(C(=O)NCc4cccc5ccccc45)nn3CCN)C2)c2c1CCCC2 [Compound 100]
IC50 [1]: 0.05 µM
EC50 [2, 4]: 4.62 µM

Compound: NCCn1nc(C(=O)NCc2cccc3ccccc23)c2c1CCN(Cc1ccc(Cl)cc1)C2 [Compound 103]
IC50 [1]: 0.18 µM
EC50 [2, 4]: 10 µM

Compound: O=C(NCc1ccccc1)c1nn(-c2ccccc2)c2c1CN(Cc1c[nH]c3ccccc13)CC2 [Compound 6]
IC50 [1]: 8 µM
EC50 [2, 4]: 18.3 µM

Compound: O=C(NCc1cccc2ccccc12)c1nn(CCO)c2c1CN(Cc1cccc3c1OCO3)CC2 [Compound 54]
IC50 [1]: 19 µM
EC50 [2, 4]: 84.4 µM

Compound: COc1ccc(CN2CCc3c(c(C(=O)NCc4cccc5ccccc45)nn3C3CCCC3)C2)c2ccccc12 [Compound 16]
IC50 [1]: 2.35 µM
EC50 [2, 4]: 10.6 µM

Compound: O=C(NCc1ccccc1)c1nn(CCO)c2c1CN(Cc1ccc(OC(F)(F)F)cc1)CC2 [Compound 24]
IC50 [1]: 25 µM
EC50 [2, 4]: 80.4 µM

EC50 [3]: 52.9 µM
Compound: COc1ccc2c(OC)ccc(CN3CCc4c(c(C(=O)NCc5cccc6ccccc56)nn4CCO)C3)c2c1 [Compound 111]

Compound: O=C(NCc1ccccc1)c1nn(CCO)c2c1CN(Cc1cc3ccccc3c3ccccc13)CC2 [Compound 30]
IC50 [1]: 6.6 µM
EC50 ([2]; AlphaScreen EC50 [μM] (±SD)): 29.8 µM

Compound: Cn1nc(C(=O)NCc2ccccc2)c2c1CCN(Cc1ccccc1)C2 [Compound 7]
IC50 [1]: 45 µM
EC50 [2, 4]: 4530 µM

Compound: COc1ccc(CN2CCc3c(c(C(=O)NCc4cccc5ccccc45)nn3CCN3CCOCC3)C2)c2ccccc12 [Compound 13]
IC50 [1]: 3.58 µM
EC50 [2, 4]: 6.72 µM

Compound: COc1ccc(CN2CCc3c(c(C(=O)NCc4cc(F)cc5ccccc45)nn3CCO)C2)c2ccccc12 [Compound 107]
IC50 [1]: 2.9 µM
EC50 [2, 4]: 28.7 µM

Compound: O=C(NCc1cccc2ccccc12)c1nn(CCO)c2c1CN(Cc1ccc(F)c3ccccc13)CC2 [Compound 115]
IC50 [1]: 5.9 µM
EC50 [2, 4]: 121 µM

Compound: Cn1nc(C(=O)NCc2ccccc2)c2c1CCN(Cc1cccc(-c3ccccc3)c1)C2 [Compound 10]
IC50 [1]: 7.4 µM
EC50 [2, 4]: 33.6 µM
